Legend:
Mel-2 cells = test: Aldolase A secretion and expression in Mel-2 cells treated with purified azurin; format: cell-based, human; details: Mel-2, purified azurin 100 nM, 10 μM, 1 mM, 30 min
Experimental: FIG. 18A-18G: Induction of aldolase A secretion by host cells in the presence of P. aeruginosa. 18A. Human host cells (cancer and normal) and P. aeruginosa were co-incubated for 30 min at a concentration of 500,000 human cells/ml with P. aeruginosa at OD=0.3. Aldolase secretion varied between the co-cultures with cancer and normal cells. […] 18B Correlation between the aldolase A and azurin levels in co-cultures of P. aeruginosa with cancer or normal cells. 18C Cancer cells (Mel-2 and MDA-MB-231) and P. aeruginosa (WT and azunull mutant) were co-incubated for 30 min at a concentration of 500,000 human cells/ml with P. aeruginosa at OD=0.3. Secretion of aldolase into the culture supernatant was assessed by western blot analysis. […]
Aldolase A gene expression in MDA-MB-231 (black bars) and Mel-2 (white bars) cells was determined by RT-PCR (22A). […] 22B: Intracellular levels of aldolase A were assessed by western blot analysis with an anti-aldolase A antibody. […]
Western blotting: After running the NuPAGE, proteins were transferred to PVDF membranes (BioRad Laboratories Inc, Hercules, CA) which were blocked in SuperBlock (T20 TBS buffer, Thermo Fisher) for one hour. […] The signal was detected using enhanced chemiluminescence (ECL, Thermo Fisher Scientific). Quantitative analysis of the bands was performed with a computer-assisted imaging densitometer (UN-SCAN-IT gel version 5.1). […]

[1] = system: normal prostate cells CRL11611; test: MTT cell viability assay, normal prostate CRL11611 cells; format: cell-based, human; details: normal prostate CRL11611 (p53+, AR+), 24-72 hr; paclitaxel 1 nM
Text: FIG. 4A-4D: Effect of peptides on prostate cancer cell lines with differences in p53 and AR expression status. […] Control (PBS)-treated cells were considered to have 100% viability. Mean±SE (N=3).
Cell lines and culture: Human cancer and noncancer (immortalized and nonimmortalized) cell lines were obtained from the American Type Culture Collection [prostate cancer (PC3, DU145 and LNCaP), normal prostate (CRL11611), breast cancer (MCF-7), ovarian cancer (SK-OV3 adenocarcinoma), lung cancer (A549)]. MDD2 breast cancer cells (p53 dominant-negative) were provided courtesy of Dr Andrei V. Gudkov, Roswell Park Cancer Institute. 20 All cell lines were cultured in MEM-E (Invitrogen) supplemented with 10% heat-inactivated fetal bovine serum (Atlanta Biological, Inc.), 100 units/mL penicillin, and 100 μg/mL streptomycin at 37° C. in 5% CO2.
Cytotoxicity assay: The MTT assay was performed as we previously described (Cha et al., Cancer Research 2020, 80: 1615-1623).

| Substance | aldolase A gene expression and intracellular levels (Mel-2 cells) | aldolase A secretion into culture medium (western blot) (Mel-2 cells) | cytotoxic effect (MTT cell viability) [1] |
| --- | --- | --- | --- |
| azurin: 14 kDa periplasmic copper protein of 128 amino acids from P. aeruginosa; purified recombinant | without increasing gene expression or intracellular levels of aldolase A | secreted a considerable amount of human aldolase A | – |
| LVN GGD DVA AAV NTA AQN NAD ALF VPPP (LVNGGDDVAAAVNTAAQNNADALFVPPP) [aurB] | – | – | not evident |

— US20250179126A1, “A NOVEL PEPTIDE FROM A PHOTOSYNTHETIC BACERIUM DIRECTLY TARGETS MITOCHONDRIA TO TRIGGER APOPTOSIS IN ADVANCED PROSTATE CANCER CELLS” (priority 2022, published 2025)
